Tested on: 324938-238-R-J1-PDC complex spheroid growth, % test/control
Experiment: Anticancer human tumor 324938-238-R-J1-PDC patient-derived bladder carcinoma cell line growth inhibition [AhR]
Settings: for viability, T/C: stronger effect = lower value
Procedure, shortened: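 Agents were dosed in half-log steps down from roughly clinical Cmax, or from 10 microM where Cmax was unknown, alone and with AhR antagonists. Read-out: percent test/control growth of tumor spheroids containing HUVEC and MSC stromal cells.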

[1] = curve of first compound, second compound 0.1 µM
[2] = curve of first compound, second compound 0.316 µM
[3] = curve of first compound, second compound 1 µM
[4] = curve of first compound, second compound 3.16 µM
[5] = curve of first compound, second compound 10 µM
[6] = second compound 0.1 µM, first compound 0.0316 µM
[7] = second compound 0.1 µM, first compound 0.1 µM
[8] = second compound 0.1 µM, first compound 0.316 µM
[9] = second compound 0.1 µM, first compound 1 µM
[10] = second compound 0.1 µM, first compound 3.16 µM
[11] = second compound 0.1 µM, first compound 10 µM
[12] = second compound 0.316 µM, first compound 0.0316 µM
[13] = second compound 0.316 µM, first compound 0.1 µM
[14] = second compound 0.316 µM, first compound 0.316 µM
[15] = second compound 0.316 µM, first compound 1 µM
[16] = second compound 0.316 µM, first compound 3.16 µM
[17] = second compound 0.316 µM, first compound 10 µM
[18] = second compound 1 µM, first compound 0.0316 µM
[19] = second compound 1 µM, first compound 0.1 µM
[20] = second compound 1 µM, first compound 0.316 µM
[21] = second compound 1 µM, first compound 1 µM
[22] = second compound 1 µM, first compound 3.16 µM
[23] = second compound 1 µM, first compound 10 µM
[24] = second compound 3.16 µM, first compound 0.0316 µM
[25] = second compound 3.16 µM, first compound 0.1 µM
[26] = second compound 3.16 µM, first compound 0.316 µM
[27] = second compound 3.16 µM, first compound 1 µM
[28] = second compound 3.16 µM, first compound 3.16 µM
[29] = second compound 3.16 µM, first compound 10 µM
[30] = second compound 10 µM, first compound 0.0316 µM
[31] = second compound 10 µM, first compound 0.1 µM
[32] = second compound 10 µM, first compound 0.316 µM
[33] = second compound 10 µM, first compound 1 µM
[34] = second compound 10 µM, first compound 3.16 µM
[35] = second compound 10 µM, first compound 10 µM
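Note: spheroids exposed to agents for seven days before viability read.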

`CC(C)CC(NC(=O)C(Cc1ccccc1)NC(=O)c1cnccn1)B(O)O` (configuration not stated) + CC(CO)NC(=O)c1cc(-c2ccc(Cl)cc2)nn(-c2cnn(C)c2)c1=O showed an IC50 [1] of 1.78 nM, an IC50 [2] of 1.69 nM and an IC50 [3] of 1.75 nM. The IC50 [4] was 1.4 nM, the IC50 [5] was 1.37 nM and the viability, T/C (second compound 0.1 µM, first compound 0.000949 µM) was 89%. It also gave a viability, T/C (second compound 0.1 µM, first compound 0.003 µM) of 18.1%, a viability, T/C (second compound 0.1 µM, first compound 0.00949 µM) of 0.1% and a viability, T/C (second compound 0.1 µM, first compound 0.03 µM) of 0.06%. For the same molecule, the viability, T/C (second compound 0.1 µM, first compound 0.0949 µM) was 0.07%, the viability, T/C (second compound 0.1 µM, first compound 0.3 µM) was 0.21% and the viability, T/C (second compound 0.316 µM, first compound 0.000949 µM) was 85.8%. The viability, T/C (second compound 0.316 µM, first compound 0.003 µM) was 14.3%, the viability, T/C (second compound 0.316 µM, first compound 0.00949 µM) was 0.09% and the viability, T/C (second compound 0.316 µM, first compound 0.03 µM) was 0.06%. The viability, T/C (second compound 0.316 µM, first compound 0.0949 µM) was 0.07%, the viability, T/C (second compound 0.316 µM, first compound 0.3 µM) was 0.16% and the viability, T/C (second compound 1 µM, first compound 0.000949 µM) was 86.2%. The viability, T/C (second compound 1 µM, first compound 0.003 µM) was 18.1%, the viability, T/C (second compound 1 µM, first compound 0.00949 µM) was 0.13% and the viability, T/C (second compound 1 µM, first compound 0.03 µM) was 0.12%. It also gave a viability, T/C (second compound 1 µM, first compound 0.0949 µM) of 0.05%, a viability, T/C (second compound 1 µM, first compound 0.3 µM) of 0.17% and a viability, T/C (second compound 3.16 µM, first compound 0.000949 µM) of 69.1%. The viability, T/C (second compound 3.16 µM, first compound 0.003 µM) was 13.6%, the viability, T/C (second compound 3.16 µM, first compound 0.00949 µM) was 0.13% and the viability, T/C (second compound 3.16 µM, first compound 0.03 µM) was 0.07%. For the same molecule, the viability, T/C (second compound 3.16 µM, first compound 0.0949 µM) was 0.07%, the viability, T/C (second compound 3.16 µM, first compound 0.3 µM) was 0.17% and the viability, T/C (second compound 10 µM, first compound 0.000949 µM) was 67.1%. The viability, T/C (second compound 10 µM, first compound 0.003 µM) was 14.8%, the viability, T/C (second compound 10 µM, first compound 0.00949 µM) was 0.23% and the viability, T/C (second compound 10 µM, first compound 0.03 µM) was 0.2%. The viability, T/C (second compound 10 µM, first compound 0.0949 µM) was 0.2% and the viability, T/C (second compound 10 µM, first compound 0.3 µM) was 0.32%.

For `COc1cc(Nc2ncc3c(n2)-c2ccc(Cl)cc2C(c2c(F)cccc2OC)=NC3)ccc1C(=O)O` + CC(CO)NC(=O)c1cc(-c2ccc(Cl)cc2)nn(-c2cnn(C)c2)c1=O, the IC50 [1] was 76.2 nM, the IC50 [2] was 79.1 nM and the IC50 [3] was 72.8 nM. The IC50 [4] was less than 31.6 nM, the IC50 [5] was less than 31.6 nM and the viability, T/C [6] was 77%. It also gave a viability, T/C [7] of 41.7%, a viability, T/C [8] of 23.5% and a viability, T/C [9] of 23.6%. The viability, T/C [10] was 24.7%, the viability, T/C [11] was 31% and the viability, T/C [12] was 71.7%. For the same molecule, the viability, T/C [13] was 44.5%, the viability, T/C [14] was 27.4% and the viability, T/C [15] was 25.4%. The viability, T/C [16] was 23.8%, the viability, T/C [17] was 30.1% and the viability, T/C [18] was 60.1%. The viability, T/C [19] was 46.1%, the viability, T/C [20] was 27.6% and the viability, T/C [21] was 28.6%. For the same molecule, the viability, T/C [22] was 26.9%, the viability, T/C [23] was 29.2% and the viability, T/C [24] was 49.4%. The viability, T/C [25] was 42.5%, the viability, T/C [26] was 30% and the viability, T/C [27] was 25.7%. For the same molecule, the viability, T/C [28] was 28.2%, the viability, T/C [29] was 29.8% and the viability, T/C [30] was 54.7%. For the same molecule, the viability, T/C [31] was 40.4%, the viability, T/C [32] was 32.8% and the viability, T/C [33] was 34.9%. For the same molecule, the viability, T/C [34] was 31.9% and the viability, T/C [35] was 39.7%.

With `COc1cc(C2c3cc4c(cc3C(OC3OC5COC(C)OC5C(O)C3O)C3COC(=O)C23)OCO4)cc(OC)c1O` (configuration not stated) + CC(CO)NC(=O)c1cc(-c2ccc(Cl)cc2)nn(-c2cnn(C)c2)c1=O the IC50 [1] was 351 nM, the IC50 [2] was 427 nM and the IC50 [3] was 441 nM. It also gave an IC50 [4] of 243 nM, an IC50 [5] of 171 nM and a viability, T/C [6] of 92.8%. The viability, T/C [7] was 96%, the viability, T/C [8] was 52.4% and the viability, T/C [9] was 30.1%. For the same molecule, the viability, T/C [10] was 26.8%, the viability, T/C [11] was 21.3% and the viability, T/C [12] was 101%. For the same molecule, the viability, T/C [13] was 90.3%, the viability, T/C [14] was 56.9% and the viability, T/C [15] was 30.3%. The viability, T/C [16] was 28.6%, the viability, T/C [17] was 23.4% and the viability, T/C [18] was 95.6%. It also gave a viability, T/C [19] of 94.9%, a viability, T/C [20] of 58.2% and a viability, T/C [21] of 30.2%. For the same molecule, the viability, T/C [22] was 31.5%, the viability, T/C [23] was 21.7% and the viability, T/C [24] was 70.6%. It also gave a viability, T/C [25] of 73.9%, a viability, T/C [26] of 43.4% and a viability, T/C [27] of 30.8%. The viability, T/C [28] was 28.8%, the viability, T/C [29] was 22.7% and the viability, T/C [30] was 66.7%. It also gave a viability, T/C [31] of 57%, a viability, T/C [32] of 41.2% and a viability, T/C [33] of 36.5%. It also gave a viability, T/C [34] of 32.7% and a viability, T/C [35] of 23.9%.

With `Cc1ccccc1N=Nc1ccc(NC(=O)c2ccnn2C)c(C)c1` the viability, T/C (compound 10 µM) was 79.2% [middle of 20 runs] and the IC50 (compound alone, run of 07/26/2022) was greater than 10000 nM.

`Nc1ncn(C2CC(O)C(CO)O2)c(=O)n1` (configuration not stated) + CC(CO)NC(=O)c1cc(-c2ccc(Cl)cc2)nn(-c2cnn(C)c2)c1=O gave an IC50 [1] greater than 1000 nM, an IC50 [2] greater than 1000 nM and an IC50 [3] greater than 1000 nM. For the same molecule, the IC50 [4] was greater than 1000 nM, the IC50 [5] was greater than 1000 nM and the viability, T/C (second compound 0.1 µM, first compound 0.00316 µM) was 98.5%. It also gave a viability, T/C (second compound 0.1 µM, first compound 0.01 µM) of 97.5%, a viability, T/C [6] of 93.4% and a viability, T/C [7] of 73.4%. The viability, T/C [8] was 81.7%, the viability, T/C [9] was 72.3% and the viability, T/C (second compound 0.316 µM, first compound 0.00316 µM) was 98.4%. It also gave a viability, T/C (second compound 0.316 µM, first compound 0.01 µM) of 102%, a viability, T/C [12] of 97.5% and a viability, T/C [13] of 82.9%. For the same molecule, the viability, T/C [14] was 80.2%, the viability, T/C [15] was 64.8% and the viability, T/C (second compound 1 µM, first compound 0.00316 µM) was 85.9%. The viability, T/C (second compound 1 µM, first compound 0.01 µM) was 91.3%, the viability, T/C [18] was 82.8% and the viability, T/C [19] was 72.2%. It also gave a viability, T/C [20] of 68.3%, a viability, T/C [21] of 61.5% and a viability, T/C (second compound 3.16 µM, first compound 0.00316 µM) of 72.4%. It also gave a viability, T/C (second compound 3.16 µM, first compound 0.01 µM) of 72.5%, a viability, T/C [24] of 64.1% and a viability, T/C [25] of 60.4%. The viability, T/C [26] was 64.4%, the viability, T/C [27] was 57.6% and the viability, T/C (second compound 10 µM, first compound 0.00316 µM) was 61.4%. It also gave a viability, T/C (second compound 10 µM, first compound 0.01 µM) of 67.9%, a viability, T/C [30] of 65.8% and a viability, T/C [31] of 55.9%. It also gave a viability, T/C [32] of 58.3% and a viability, T/C [33] of 57.8%.

— PubChem BioAssay AID1918995 (Molecular Pharmacology Branch, DTP, NCI, 2023)
